In the NIST ThermoML archive (doi:10.1021/je800110r):

Conditions: Liquid, Vibrating tube method

CCCCCCCCCC [decane]
Conditions	mass density [kg/m3]
333.15 K, 34442 kPa	727.7
333.15 K, 34445 kPa	727.8
333.16 K, 815 kPa	699.9
333.16 K, 842 kPa	699.9
333.16 K, 881 kPa	700
333.16 K, 941 kPa	700
333.16 K, 2806 kPa	701.9
333.16 K, 2881 kPa	702
333.16 K, 2921 kPa	701.9
333.16 K, 3005 kPa	702
333.16 K, 4814 kPa	703.9
333.16 K, 4927 kPa	703.9
333.16 K, 5007 kPa	704
333.16 K, 5592 kPa	704.7
333.16 K, 5608 kPa	704.7
333.16 K, 5623 kPa	704.7
333.16 K, 5704 kPa	704.7
333.16 K, 5748 kPa	704.8
333.16 K, 5756 kPa	704.7
333.16 K, 5775 kPa	704.7
333.16 K, 5795 kPa	704.8
333.16 K, 5811 kPa	704.9
333.16 K, 5830 kPa	704.8
333.16 K, 5852 kPa	704.8
333.16 K, 5874 kPa	704.9
333.16 K, 5896 kPa	704.9
333.16 K, 5917 kPa	705
333.16 K, 5934 kPa	704.9
333.16 K, 5956 kPa	704.9
333.16 K, 5973 kPa	705
333.16 K, 6001 kPa	704.9
333.16 K, 6018 kPa	705
333.16 K, 6045 kPa	704.9
333.16 K, 6069 kPa	705.1
333.16 K, 6092 kPa	705
333.16 K, 6116 kPa	705.1
333.16 K, 6643 kPa	705.5
333.16 K, 6667 kPa	705.5
333.16 K, 6688 kPa	705.6
333.16 K, 6713 kPa	705.6
333.16 K, 6738 kPa	705.6
333.16 K, 6763 kPa	705.7
333.16 K, 6796 kPa	705.7
333.16 K, 6822 kPa	705.8
333.16 K, 6844 kPa	705.8
333.16 K, 7378 kPa	706.3
333.16 K, 7414 kPa	706.2
333.16 K, 7450 kPa	706.4
333.16 K, 7482 kPa	706.3
333.16 K, 7512 kPa	706.3
333.16 K, 7550 kPa	706.4
333.16 K, 7575 kPa	706.4
333.16 K, 7610 kPa	706.5
333.16 K, 7628 kPa	706.3
333.16 K, 7651 kPa	706.4
333.16 K, 7667 kPa	706.6
333.16 K, 7693 kPa	706.5
333.16 K, 7720 kPa	706.6
333.16 K, 7744 kPa	706.6
333.16 K, 7771 kPa	706.7
333.16 K, 7795 kPa	706.6
333.16 K, 7812 kPa	706.5
333.16 K, 7830 kPa	706.6
333.16 K, 7853 kPa	706.7
333.16 K, 7871 kPa	706.8
333.16 K, 7897 kPa	706.8
333.16 K, 7918 kPa	706.7
333.16 K, 7939 kPa	706.8
333.16 K, 7960 kPa	706.7
333.16 K, 7987 kPa	706.8
333.16 K, 8006 kPa	706.9
333.16 K, 8033 kPa	706.9
333.16 K, 8049 kPa	706.9
333.16 K, 8068 kPa	707
333.16 K, 8410 kPa	707.1
333.16 K, 8437 kPa	707.2
333.16 K, 8464 kPa	707.2
333.16 K, 8484 kPa	707.2
333.16 K, 8592 kPa	707.4
333.16 K, 8666 kPa	707.4
333.16 K, 8688 kPa	707.6
333.16 K, 8718 kPa	707.4
333.16 K, 8769 kPa	707.5
333.16 K, 8949 kPa	707.7
333.16 K, 8971 kPa	707.7
333.16 K, 9005 kPa	707.7
333.16 K, 9029 kPa	707.7
333.16 K, 9051 kPa	707.7
333.16 K, 9073 kPa	707.8
333.16 K, 9099 kPa	707.9
333.16 K, 9121 kPa	707.7
333.16 K, 9143 kPa	707.9
333.16 K, 9169 kPa	707.8
333.16 K, 9191 kPa	707.9
333.16 K, 9214 kPa	707.9
333.16 K, 9234 kPa	708
333.16 K, 9254 kPa	707.9
333.16 K, 9280 kPa	707.9
333.16 K, 9303 kPa	708.1
333.16 K, 9330 kPa	708
333.16 K, 9521 kPa	708.1
333.16 K, 9549 kPa	708.2
333.16 K, 9737 kPa	708.4
333.16 K, 9763 kPa	708.4
333.16 K, 9789 kPa	708.4
333.16 K, 9818 kPa	708.4
333.16 K, 12216 kPa	710.6
333.16 K, 12245 kPa	710.6
333.16 K, 12280 kPa	710.7
333.16 K, 12305 kPa	710.7
333.16 K, 12351 kPa	710.7
333.16 K, 12386 kPa	710.7
333.16 K, 12427 kPa	710.8
333.16 K, 12458 kPa	710.8
333.16 K, 12492 kPa	710.8
333.16 K, 12528 kPa	710.8
333.16 K, 12561 kPa	710.9
333.16 K, 12601 kPa	711
333.16 K, 12638 kPa	710.9
333.16 K, 12670 kPa	711
333.16 K, 12704 kPa	711
333.16 K, 12735 kPa	711
333.16 K, 12766 kPa	711
333.16 K, 12792 kPa	711.1
333.16 K, 12824 kPa	711.1
333.16 K, 13106 kPa	711.4
333.16 K, 13133 kPa	711.4
333.16 K, 13377 kPa	711.5
333.16 K, 13399 kPa	711.4
333.16 K, 13418 kPa	711.7
333.16 K, 13441 kPa	711.6
333.16 K, 13459 kPa	711.6
333.16 K, 13476 kPa	711.7
333.16 K, 13493 kPa	711.7
333.16 K, 13510 kPa	711.7
333.16 K, 13525 kPa	711.7
333.16 K, 13537 kPa	711.6
333.16 K, 13554 kPa	711.7
333.16 K, 13566 kPa	711.8
333.16 K, 13581 kPa	711.8
333.16 K, 13900 kPa	711.9
333.16 K, 14258 kPa	712.3
333.16 K, 14275 kPa	712.3
333.16 K, 14293 kPa	712.4
333.16 K, 14310 kPa	712.3
333.16 K, 14334 kPa	712.3
333.16 K, 14348 kPa	712.4
333.16 K, 14369 kPa	712.4
333.16 K, 14389 kPa	712.4
333.16 K, 14403 kPa	712.4
333.16 K, 14421 kPa	712.5
333.16 K, 14436 kPa	712.4
333.16 K, 14457 kPa	712.6
333.16 K, 14470 kPa	712.5
333.16 K, 14484 kPa	712.6
333.16 K, 14501 kPa	712.6
333.16 K, 14514 kPa	712.5
333.16 K, 14528 kPa	712.6
333.16 K, 14543 kPa	712.4
333.16 K, 14559 kPa	712.6
333.16 K, 14581 kPa	712.6
333.16 K, 14601 kPa	712.6
333.16 K, 14623 kPa	712.6
333.16 K, 14640 kPa	712.6
333.16 K, 14660 kPa	712.7
333.16 K, 14678 kPa	712.6
333.16 K, 14696 kPa	712.7
333.16 K, 14711 kPa	712.7
333.16 K, 14728 kPa	712.8
333.16 K, 14750 kPa	712.8
333.16 K, 14770 kPa	712.8
333.16 K, 14785 kPa	712.7
333.16 K, 14808 kPa	712.8
333.16 K, 14828 kPa	712.8
333.16 K, 14846 kPa	712.8
333.16 K, 14864 kPa	712.9
333.16 K, 14881 kPa	712.7
333.16 K, 14984 kPa	712.9
333.16 K, 15187 kPa	713
333.16 K, 15232 kPa	713.1
333.16 K, 15248 kPa	713.1
333.16 K, 15291 kPa	713.1
333.16 K, 15313 kPa	713.2
333.16 K, 15331 kPa	713.3
333.16 K, 15356 kPa	713.2
333.16 K, 15370 kPa	713.2
333.16 K, 15519 kPa	713.4
333.16 K, 15581 kPa	713.3
333.16 K, 18702 kPa	716
333.16 K, 18825 kPa	715.9
333.16 K, 21785 kPa	718.5
333.16 K, 21820 kPa	718.6
333.16 K, 25349 kPa	721.2
333.16 K, 25383 kPa	721.2
333.16 K, 25434 kPa	721.3
333.16 K, 25480 kPa	721.3
333.16 K, 25520 kPa	721.3
333.16 K, 25560 kPa	721.3
333.16 K, 25612 kPa	721.4
333.16 K, 25653 kPa	721.5
333.16 K, 26114 kPa	721.7
333.16 K, 26176 kPa	721.8
333.16 K, 26222 kPa	721.8
333.16 K, 26260 kPa	721.9
333.16 K, 26304 kPa	721.8
333.16 K, 26342 kPa	721.9
333.16 K, 27466 kPa	722.8
333.16 K, 27509 kPa	722.8
333.16 K, 27558 kPa	722.8
333.16 K, 27603 kPa	722.9
333.16 K, 27660 kPa	722.9
333.16 K, 27703 kPa	722.9
333.16 K, 27755 kPa	722.9
333.16 K, 27812 kPa	723
333.16 K, 27849 kPa	723.1
333.16 K, 27894 kPa	723.1
333.16 K, 27945 kPa	723
333.16 K, 27985 kPa	723.2
333.16 K, 28031 kPa	723.2
333.16 K, 28077 kPa	723.1
333.16 K, 28117 kPa	723.2
333.16 K, 28185 kPa	723.3
333.16 K, 28218 kPa	723.2
333.16 K, 28262 kPa	723.3
333.16 K, 28293 kPa	723.4
333.16 K, 28324 kPa	723.5
333.16 K, 28354 kPa	723.3
333.16 K, 28395 kPa	723.5
333.16 K, 28436 kPa	723.4
333.16 K, 28472 kPa	723.5
333.16 K, 28508 kPa	723.5
333.16 K, 28555 kPa	723.6
333.16 K, 28586 kPa	723.5
333.16 K, 29016 kPa	723.9
333.16 K, 29059 kPa	724
333.16 K, 29107 kPa	724
333.16 K, 29157 kPa	724.1
333.16 K, 29189 kPa	724
333.16 K, 29233 kPa	724
333.16 K, 29260 kPa	724.2
333.16 K, 29300 kPa	724.2
333.16 K, 29339 kPa	724.2
333.16 K, 29378 kPa	724.2
333.16 K, 29411 kPa	724.2
333.16 K, 29456 kPa	724.2
333.16 K, 29495 kPa	724.1
333.16 K, 29541 kPa	724.3
333.16 K, 29575 kPa	724.4
333.16 K, 29625 kPa	724.4
333.16 K, 29666 kPa	724.3
333.16 K, 29700 kPa	724.3
333.16 K, 29730 kPa	724.6
333.16 K, 29759 kPa	724.5
333.16 K, 29794 kPa	724.6
333.17 K, 25689 kPa	721.5
333.17 K, 25730 kPa	721.5
333.17 K, 25766 kPa	721.6
333.17 K, 25801 kPa	721.5
333.17 K, 25849 kPa	721.7
333.17 K, 25908 kPa	721.7
333.17 K, 25950 kPa	721.7
333.17 K, 25992 kPa	721.7
333.17 K, 26034 kPa	721.7
333.17 K, 26071 kPa	721.8
333.17 K, 28623 kPa	723.6
333.17 K, 28670 kPa	723.7
333.17 K, 28702 kPa	723.6
333.17 K, 28729 kPa	723.8
333.17 K, 28761 kPa	723.8
333.17 K, 28807 kPa	723.7
333.17 K, 28849 kPa	723.8
333.17 K, 28887 kPa	723.7
333.17 K, 28930 kPa	724
333.17 K, 28974 kPa	723.9
